From US20170121683A1, “ARYL HYDROCARBON RECEPTOR DISRUPTION AND ENHANCEMENT” (priority 2015, published 2017)

Legend:
Format in all cases: cell-based, human
[1] = tested on: hESC-derived non-adherent hematopoietic progenitor cells; experiment: Cell cycle analysis (EdU/propidium iodide flow cytometry); settings: Day 6+5, SR-1 or TCDD, n=3
Protocol: FIG. 10A. Non-adherent hematopoietic progenitor cells derived from hESCs were cultured in the presence of DMSO, SR-1, and TCDD until Day 6+5. Cell cycle phase was assessed using flow cytometry to determine the total percentage of G0/G1)(EdU^−PI^lo, S-phase (EdU^+PI^+), or G2/M (EdU^−PI^hi). Representative flow cytometry plots are shown. FIG. 10B. Quantification of cell cycle analysis, n=3, *p<0.05, **p<0.01, ***p<0.001 as assessed by two-way ANOVA+Tukey-Kramer multiple comparisons post-hoc test.
Spin EBs were differentiated into hemato-endothelial cells with non-adherent cells harvested on Day 6+5. Cells were cultured in a 24-well plate and harvested after 1 week for flow cytometry analysis. Cells were co-stained with anti-human CD34-PECy7 to monitor proliferation of HSPCs. For cell cycle analysis, Day 6+5 non-adherent cells derived from EBs were harvest and monitored for S-phase using the Click-iT EdU Alex Fluor 647 flow cytometry assay kit per manufacturer instructions. Prior to flow cytometry, cells were counterstained with 50 μg/mL propidium iodide supplemented with 100 μg/mL RNAse A (New England BioLabs, Ipswich, Mass.).

hESCs = experiment: Viability of hESC-derived cells, Sytox Blue Live/Dead Stain; settings: 1 μM SR-1 or 10 nM TCDD
Protocol: FIG. 8A. Non-adherent hematopoietic progenitor cells derived from hESCs were harvested at Day 6+3, Day 6+5, Day 6+7, and Day 6+9 time points and probed for gene expression by quantitative real-time PCR (qPCR). For each gene, Ct values were normalized to GAPDH at each time point and data is presented as relative fold-change as compared to undifferentiated hESCs. […] FIG. 8B Undifferentiated hESCs were cultured in the presence of 1 μM SR-1, 10 nM TCDD, or DMSO vehicle control for 96 hours and probed for gene expression by qPCR. For each gene, Ct values were normalized to GAPDH at each time point and data is presented as relative fold-change as compared to DMSO treated hESCs. n=3, error bars represent SEM, *p<0.05 assessed by two-way ANOVA+Tukey-Kramer multiple comparisons post-hoc test. FIG. 8C. Both adherent and non-adherent cell fractions treated with either DMSO, SR-1, or TCDD were harvested at Day 6+3, Day 6+6, and Day 6+9 and probed for viability with Sytox Blue Live/Dead Stain. […]
Harvested cells were incubated with PE-Cy7 CD34 (BD Biosciences, San Jose, Calif.) in conjunction with APC CD31, APC CD41a, APC CD43, or APC CD45 for 30 minutes at 4° C. in FACS buffer (DPBS containing 2% fetal bovine serum and 0.1% sodium azide). […] Cells were analyzed using an LSRII flow cytometer (BD Biosciences) and data were analyzed using FlowJo software (TreeStart, Ashland, Oreg.).

[2] = tested on: AHR-target genes (CYP1A1 and CYP1B1) in H9 hESCs; experiment: qPCR of AHR downstream gene targets in undifferentiated hESCs; settings: 1 μM SR-1 or 10 nM TCDD for 96 hours, compared to DMSO controls
Protocol: Undifferentiated H9 hESCs were treated with either DMSO (vehicle), 1 μM SR-1, or 10 nM TCDD for 96 hours in hESC growth media. Quantitative polymerase chain reaction analysis for AHR and two downstream effector gene targets (CYP1A1 and CYP1B1) are shown.
FIG. 8A. Non-adherent hematopoietic progenitor cells derived from hESCs were harvested at Day 6+3, Day 6+5, Day 6+7, and Day 6+9 time points and probed for gene expression by quantitative real-time PCR (qPCR). For each gene, Ct values were normalized to GAPDH at each time point and data is presented as relative fold-change as compared to undifferentiated hESCs. […] FIG. 8B Undifferentiated hESCs were cultured in the presence of 1 μM SR-1, 10 nM TCDD, or DMSO vehicle control for 96 hours and probed for gene expression by qPCR. For each gene, Ct values were normalized to GAPDH at each time point and data is presented as relative fold-change as compared to DMSO treated hESCs. n=3, error bars represent SEM, *p<0.05 assessed by two-way ANOVA+Tukey-Kramer multiple comparisons post-hoc test. FIG. 8C. Both adherent and non-adherent cell fractions treated with either DMSO, SR-1, or TCDD were harvested at Day 6+3, Day 6+6, and Day 6+9 and probed for viability with Sytox Blue Live/Dead Stain. Total percentage of viable cells for each group and time point are plotted. n=3.
H9 human embryonic stem cells (H9 hESCs; University of Wisconsin, Madison, Wis.) were adapted to passage as single cells using TrypLE (Invitrogen, Carlsbad, Calif.) as previously described (Ng et al. Nat. Protoc. 3, 768-76 (2008)). H9 hESCs were maintained on irradiated mouse embryonic fibroblasts in ES cell growth medium including Dulbecco's modified Eagle's medium (DMEM)/Ham's F-12 medium (F12) (Invitrogen) supplemented with 15% Knockout Serum Replacer (Invitrogen), 1 mM L-glutamine (Invitrogen), 0.1 mM β-mercaptoethanol (Sigma Aldrich, St. Louis, Mo.), 1% minimum essential medium nonessential amino acids (Invitrogen), 4 ng/mL basic fibroblast growth factor (R&D Systems Inc., Minneapolis, Minn.), and 1% penicillin-streptomycin (Invitrogen) incubated at 37° C. in a humidified atmosphere containing 5% CO2. Single-cell adapted hESCs were subjected to hemato-endothelial differentiation as spin embryoid bodies (“spin-EBs”), also previously described (Ng et al. Nat. Protoc. 3, 768-76 (2008); Knorr et al. Stem Cells Dev. 22, 1861-9 (2013); Ferrell et al., Stem Cells 33(4), 1130-41 (2015)). […]

hESC-derived NK cells = experiment: CD107a degranulation assay with K562 target cells; settings: Day 11+28, K562 targets at 2:1 effector:target ratio, 4 hours

Compound | percentage of cells in G0/G1 phase (EdU−PIlow) [1] | percentage of cells in S-phase (EdU+PI+) [1] | cytotoxic effects on hESCs (hESCs) | expression of CYP1A1 [2] | expression of CYP1B1 [2] | CD107a expression (percentage of CD107a+ cells) (hESC-derived NK cells) [%]
CC(C)n1cnc2c(NCCc3ccc(O)cc3)nc(-c3csc4ccccc34)nc21 [SR-1, StemReginin-1] | 43.7%±1.82 | 38.2%±1.00 | no significant cytotoxic effects | reduced expression | reduced expression | 58.1±0.67
Clc1cc2c(cc1Cl)Oc1cc(Cl)c(Cl)cc1O2 [TCDD, 2,3,7,8-tetrachlorodibenzo-p-dioxin] | 25.8±0.34% | 38.2%±1.03 | no significant cytotoxic effects | significantly increased expression | significantly increased expression | 36.8±2.1
